Data published in ChEMBL document CHEMBL5537205, “Discovery of D25, a Potent and Selective MNK Inhibitor for Sepsis-Associated Acute Spleen Injury” (J Med Chem, 2024).
Activity calls are given as the source filed them. The rule behind the calls is not given here.

What was measured:
MV4-11 = assay: Antiproliferative activity against human MV4-11 cells assessed as inhibition of cell proliferation at 20 uM incubated for 48 hrs by CCK8 assay relative to control; format: functional
RAW264.7 [1] = assay: Antiinflammatory activity against mouse RAW264.7 cells assessed as inhibition of LPS-NO production by Griess reagent based assay; format: functional, cell-based
RAW264.7 [2] = assay: Cytotoxicity against mouse RAW264.7 cells assessed as reduction in cell viability incubated for 24 hrs by MTT assay; format: toxicity, cell-based; conditions: raw264.7, 24 h
Mus musculus [3] = assay: Antiinflammatory activity in LPS-induced BALB/c sepsis mouse model assessed as increase in GSH level in serum at 2.5 mg/kg preadministered with compound via gavage for 14 days followed by LPS stimulation and measured after 6 hrs; format: functional, organism-based; conditions: time 342.0 hrs
Mus musculus [4] = assay: Antiinflammatory activity in LPS-induced BALB/c sepsis mouse model assessed as decrease in cell gap in spleen at 2.5 mg/kg preadministered with compound via gavage for 14 days followed by LPS stimulation and measured after 6 hrs by H&E staining based analysis; format: functional, organism-based; conditions: time 342.0 hrs
Mus musculus [5] = assay: Antiinflammatory activity in LPS-induced BALB/c sepsis mouse model assessed as decrease in inflammatory cells in spleen at 2.5 mg/kg preadministered with compound via gavage for 14 days followed by LPS stimulation and measured after 6 hrs by H&E staining based analysis; format: functional, organism-based; conditions: time 342.0 hrs
Mus musculus [6] = assay: Antiinflammatory activity in LPS-induced BALB/c sepsis mouse model assessed as decrease in infiltration of macrophages in spleen at 2.5 mg/kg preadministered with compound via gavage for 14 days followed by LPS stimulation and measured after 6 hrs by immunohistochemistry analysis; format: functional, organism-based; conditions: time 342.0 hrs
Mus musculus [7] = assay: Antiinflammatory activity in LPS-induced BALB/c sepsis mouse model assessed as decrease in serum TNF-alpha level at 2.5 mg/kg preadministered with compound via gavage for 14 days followed by LPS stimulation and measured after 6 hrs by ELISA; format: functional, organism-based; conditions: time 342.0 hrs
Mus musculus [8] = assay: Antiinflammatory activity in LPS-induced BALB/c sepsis mouse model assessed as increase in SOD level in serum at 2.5 mg/kg preadministered with compound via gavage for 14 days followed by LPS stimulation and measured after 6 hrs; format: functional, organism-based; conditions: time 342.0 hrs
Mus musculus [9] = assay: Antiinflammatory activity in LPS-induced BALB/c sepsis mouse model assessed as decrease in serum AST level at 2.5 mg/kg preadministered with compound via gavage for 14 days followed by LPS stimulation and measured after 6 hrs; format: functional, organism-based; conditions: time 342.0 hrs
Mus musculus [10] = assay: Antiinflammatory activity in LPS-induced BALB/c sepsis mouse model assessed as decrease in serum ALT level at 2.5 mg/kg preadministered with compound via gavage for 14 days followed by LPS stimulation and measured after 6 hrs; format: functional, organism-based; conditions: time 342.0 hrs
Mus musculus [11] = assay: Antiinflammatory activity in LPS-induced BALB/c sepsis mouse model assessed as decrease in MDA level in serum at 2.5 mg/kg preadministered with compound via gavage for 14 days followed by LPS stimulation and measured after 6 hrs; format: functional, organism-based; conditions: time 342.0 hrs
Mus musculus [12] = assay: Antiinflammatory activity in LPS-induced BALB/c sepsis mouse model assessed as decrease in serum IL-6 level at 2.5 mg/kg preadministered with compound via gavage for 14 days followed by LPS stimulation and measured after 6 hrs by ELISA; format: functional, organism-based; conditions: time 342.0 hrs
Mus musculus [13] = assay: Antiinflammatory activity in LPS-induced BALB/c sepsis mouse model assessed as decrease in serum creatinine level at 2.5 mg/kg preadministered with compound via gavage for 14 days followed by LPS stimulation and measured after 6 hrs; format: functional, organism-based; conditions: time 342.0 hrs
Mus musculus [14] = assay: Antiinflammatory activity in LPS-induced BALB/c sepsis mouse model assessed as decrease in serum IL-1beta level at 2.5 mg/kg preadministered with compound via gavage for 14 days followed by LPS stimulation and measured after 6 hrs by ELISA; format: functional, organism-based; conditions: time 342.0 hrs
RAW264.7 [15] = assay: Antiinflammatory activity in LPS-induced mouse RAW264.7 cells assessed as reduction in ROS level at 10 uM pretreated with compound followed by LPS stimulation and measured after 1 hrs by flow cytometric analysis; format: functional, cell-based
Mus musculus [16] = assay: Antiinflammatory activity in LPS-induced BALB/c sepsis mouse model assessed as decrease in serum BUN level at 2.5 mg/kg preadministered with compound via gavage for 14 days followed by LPS stimulation and measured after 6 hrs; format: functional, organism-based; conditions: time 342.0 hrs
RAW264.7 [17] = assay: Antiinflammatory activity against mouse RAW264.7 cells assessed as inhibition of LPS-NO production at 20 uM by Griess reagent based assay relative to control; format: functional

For Fc1ccc(-c2cc(C3CCNCC3)n[nH]2)c(F)c1, the inhibition at 20 µM (MV4-11) was 9.8%.
In the case of Fc1cc(-c2cc(C3CCNCC3)n[nH]2)ccn1, the inhibition at 20 µM (MV4-11) is reported as 0.1%.
Nc1ncccc1-c1cc(C2CCNCC2)n[nH]1 showed an inhibition at 20 µM (MV4-11) of 15.2%.
Nc1ncc(-c2cc(C3CCNCC3)n[nH]2)cn1 was tested, and the inhibition at 20 µM (MV4-11) was 37.9%.
Compound c1ncc(-c2cc(C3CCNCC3)n[nH]2)cn1 has an inhibition at 20 µM (MV4-11) of 0.1%.
CN(C)c1cc(-c2cc(C3CCNCC3)n[nH]2)ccn1 was tested, and the inhibition at 20 µM (MV4-11) was 56.9%.
Cc1cc(-c2cc(C3CCNCC3)n[nH]2)cc(C)n1 showed an inhibition at 20 µM (MV4-11) of 0.2%.
CCNc1cc(-c2cc(C3CCNCC3)n[nH]2)ccn1 showed an inhibition at 20 µM (MV4-11) of 15.4%.
For Fc1cnccc1-c1cc(C2CCNCC2)n[nH]1, the Activity (RAW264.7 [1]) was “inactive”, the Activity (RAW264.7 [2]) was “Non-Toxic” and the inhibition at 20 µM (MV4-11) was 0.1%.
COc1cc(-c2cc(C3CCNCC3)n[nH]2)ccn1 gave an inhibition at 20 µM (MV4-11) of 19.3%.
For c1ncc(-c2cc(C3CCNCC3)n[nH]2)s1, the inhibition at 20 µM (MV4-11) was 11.1%.
FC(F)(F)c1ccc(-c2cc(C3CCNCC3)n[nH]2)cc1 was tested, and the inhibition at 20 µM (MV4-11) was 36%.
In the case of Brc1cnccc1-c1cc(C2CCNCC2)n[nH]1, the inhibition at 20 µM (MV4-11) is reported as 6.1%.
c1ccc(-c2cc(C3CCNCC3)n[nH]2)cc1 showed an inhibition at 20 µM (MV4-11) of 0.3%.
In the case of Nc1ccc(-c2cc(C3CCNCC3)n[nH]2)cn1, the inhibition at 20 µM (MV4-11) is reported as 35%.
With c1cncc(-c2cc(C3CCNCC3)n[nH]2)c1 the inhibition at 20 µM (MV4-11) was 0.2%.
Work on c1cc(-c2cc(C3CCNCC3)n[nH]2)cs1 yielded an inhibition at 20 µM (MV4-11) of 0.1%.
In the case of C[C@@H]1C[C@H]2[C@@H]3CCC4=CC(=O)C=C[C@]4(C)[C@@]3(F)[C@@H](O)C[C@]2(C)[C@@]1(O)C(=O)CO, the Activity (Mus musculus [3]) is reported as “Active”, the Activity (Mus musculus [4]) is reported as “Active” and the Activity (Mus musculus [5]) is reported as “Active”. For the same compound, the Activity (Mus musculus [6]) was “Active”, the Activity (Mus musculus [7]) was “Active” and the Activity (Mus musculus [8]) was “Active”. For the same compound, the Activity (Mus musculus [9]) was “Active”, the Activity (Mus musculus [10]) was “Active” and the Activity (Mus musculus [11]) was “Active”. For the same compound, the Activity (Mus musculus [12]) was “Active”, the Activity (Mus musculus [13]) was “Active” and the Activity (Mus musculus [14]) was “Active”. The Activity (RAW264.7 [15]) was “Active” and the Activity (Mus musculus [16]) was “Active”.
Work on Clc1cc(-c2cc(C3CCNCC3)n[nH]2)cc(Cl)n1 yielded an inhibition at 20 µM (MV4-11) of 22.1%.
O=[N+]([O-])c1ccc(-c2cc(C3CCNCC3)n[nH]2)cc1 gave an inhibition at 20 µM (MV4-11) of 4.6%.
Work on c1cc(-c2cc(C3CCNCC3)n[nH]2)ncn1 yielded an inhibition at 20 µM (MV4-11) of 0.2%.
For CN1CCC(c2cc(-c3ccncc3)[nH]n2)CC1, the inhibition at 20 µM (MV4-11) was 3.39%.
c1cnc(-c2cc(C3CCNCC3)n[nH]2)cn1 showed an inhibition at 20 µM (MV4-11) of 0.1%.
CNc1cc(-c2cc(C3CCNCC3)n[nH]2)ccn1 gave an inhibition at 20 µM (MV4-11) of 30.2%.
With Cn1ccc2c(-c3cc(C4CCNCC4)n[nH]3)ccnc21 the inhibition at 20 µM (MV4-11) was 23.8%.
For CN1CCN(c2ccc(-c3cc(C4CCNCC4)n[nH]3)cc2)CC1, the inhibition at 20 µM (MV4-11) was 8.5% and the inhibition at 20 µM (RAW264.7 [17]) was > 50%.
For Fc1ccc(-c2cc(C3CCNCC3)n[nH]2)cc1, the inhibition at 20 µM (MV4-11) was 0.1%.
For N#Cc1ccc(-c2cc(C3CCNCC3)n[nH]2)cc1, the inhibition at 20 µM (MV4-11) was 6% and the inhibition at 20 µM (RAW264.7 [17]) was > 50%.
For c1cc(-c2cc(C3CCNCC3)n[nH]2)ccn1, the Activity (RAW264.7 [1]) was “inactive” and the inhibition at 20 µM (MV4-11) was 51.2%.
Fc1cc(F)cc(-c2cc(C3CCNCC3)n[nH]2)c1 showed an inhibition at 20 µM (MV4-11) of 2.1%.
Work on Fc1cccc(-c2cc(C3CCNCC3)n[nH]2)c1 yielded an inhibition at 20 µM (MV4-11) of 0.1%.
Clc1cnccc1-c1cc(C2CCNCC2)n[nH]1 was tested, and the inhibition at 20 µM (MV4-11) was 32.8%.
In the case of Clc1cc(-c2cc(C3CCNCC3)n[nH]2)ccn1, the inhibition at 20 µM (MV4-11) is reported as 35.6%.
For Fc1ccc(-c2cc(C3CCNCC3)n[nH]2)cc1F, the inhibition at 20 µM (MV4-11) was 6.4%.
Work on Cc1cc(-c2cc(C3CCNCC3)n[nH]2)ccn1 yielded an inhibition at 20 µM (MV4-11) of 0.1%.
In the case of c1cc(-c2cc(C3CCNCC3)[nH]n2)ccn1, the Activity (RAW264.7 [2]) is reported as “Non-Toxic”.
Compound Brc1cc(-c2cc(C3CCNCC3)n[nH]2)ccn1 has an inhibition at 20 µM (MV4-11) of 20.7%.
In the case of Nc1cc(-c2cc(C3CCNCC3)n[nH]2)ccn1, the Activity (RAW264.7 [1]) is reported as “inactive”, the Activity (RAW264.7 [2]) is reported as “Non-Toxic” and the inhibition at 20 µM (MV4-11) is reported as 33.3%.
In the case of Cc1cc(F)ccc1-c1cc(C2CCNCC2)n[nH]1, the inhibition at 20 µM (MV4-11) is reported as 31.2%.
For Fc1cc(-c2cc(C3CCNCC3)n[nH]2)cc(F)c1F, the inhibition at 20 µM (MV4-11) was 3.4%.
With Clc1cncc(Cl)c1-c1cc(C2CCNCC2)n[nH]1 the inhibition at 20 µM (MV4-11) was 19.6%.
With FC(F)(F)c1cc(-c2cc(C3CCNCC3)n[nH]2)ccn1 the inhibition at 20 µM (MV4-11) was 52.5%.
